Key:
Assay type in all cases: functional
Cavia porcellus [1] = assay: Antioxidant activity against gamma irradiation-induced ROS production in Cavia porcellus (guinea pig) liver assessed as thiobarbituric acid reactive substance level per g tissue at 50 U/Kg, ip administered 2 days prior to irradiation-challenge measured after 30 min by spectroscopic analysis (reference value: 168.75 +/- 12.54 nmol per g tissue)
Cavia porcellus [2] = assay: (§1) Antioxidant activity against gamma irradiation-induced ROS production in Cavia porcellus (guinea pig) liver assessed as glutathione peroxidase level per mg protein at 50 U/Kg, ip administered 2 days prior to irradiation-challenge measured after 30 min by spectroscopic analysis (reference value: 0.76 +/- 0.06 U per mg protein)
Cavia porcellus [3] = assay: Antioxidant activity against gamma irradiation-induced ROS production in Cavia porcellus (guinea pig) liver assessed as nitric oxide level at 50 U/Kg, ip administered 2 days prior to irradiation-challenge measured after 30 min by ESR spectroscopic analysis (reference value: 0.3 +/- 0.08 a.u)
Cavia porcellus [4] = assay: as §1, with “superoxide dismutase” for “glutathione peroxidase”, “8.72” for “0.76”, “1.94” for “0.06”

`CC1=C(/C=C/C(C)=C/C=C/C(C)=C/CO)C(C)(C)CCC1` [RETINOL] gave an Activity (Cavia porcellus [1]) of 197 nmol/g, an Activity (Cavia porcellus [2]) of 0.39 U/mg and an Activity (Cavia porcellus [3]) of 1.04 a.u. For the same compound, the Activity (Cavia porcellus [4]) was 6.66 U/mg.

From ChEMBL document CHEMBL3045926, “Exacerbative role of vitamn A on radiation damage in vivo” (2008)
